From PMC6331910, “The Curcumin Analogue 1,5-Bis(2-hydroxyphenyl)-1,4-pentadiene-3-one Induces Apoptosis and Downregulates E6 and E7 Oncogene Expression in HPV16 and HPV18-Infected Cervical Cancer Cells” (Molecules, 2015)

How the values were obtained:
[1] = test system: HeLa; assay: MTT anti-proliferative (time-dependent) assay, 24, 48 and 72 h; format: cell-based, human
Description: (§1) HeLa, CaSki and MRC9 cells were plated in triplicate wells in 96-well flat-bottomed tissue culture plates (Nunc, Roskilde, Denmark) with 10^5 cells per mL in 100 μL culture media with working concentrations of diarylpentanoid treatment ranging from 1.6 to 100 μM. Control-treated wells contained cells incubated in media with equal volumes of DMSO (0.2%). Cells were treated for 72 h for dose-dependent cytotoxicity assays and at 24, 48 and 72 h for anti-proliferative (time-dependent) assays. In order to assess cell viability and anti-proliferative activity after diarylpentanoid treatment, the colorimetric 3-(4,5-dimethylthiazol-2-yl)-2,5-diphenyltetrazolium bromide (MTT) assay was performed as previously described with modifications. The media was aspirated and cells were incubated in 100 µL complete medium with 0.5 mg/mL MTT solution for 4 h in the dark to allow metabolism of MTT by cellular mitochondrial dehydrogenases. The excess MTT was aspirated and the formazan crystals formed were dissolved by the addition of 100 µL of DMSO. The absorbance of dark blue formazan was read at 570/650 nm wavelengths using a microplate reader (Bio-Rad Benchmark Plus Microplate Spectrophotometer, Hercules, CA, USA). Triplicate absorbance values were averaged and the effect of the compounds on growth inhibition was assessed as percentage cell viability as follows: (1) Percentage cell viability =Absorbance of Test − Absorbance of Blank (media only)/Absorbance of Control − Absorbance of Blank (media only) × 100 where, absorbance = optical density of sample, O.D.; control = untreated sample; test = treated sample.
(§2) An independent set of vehicle-treated (DMSO only) controls were included in the anti-proliferative assays to assess the proliferation of untreated cancer cells over 24, 48 and 72 h. As such, the cell viability at 24 h was used as a baseline to measure proliferation rate at 48 and 72 h. (2) Percentage cell viability = […]/Absorbance of Control (24 h) × Absorbance of Blank (media only) × 100

[2] = test system: CaSki; assay: as above; format: cell-based, human; details: for cell viability: 3.1–100 μM
Description: as §1, §2

[3] = test system: HeLa; assay: Acridine orange/ethidium bromide double staining, quantification of viable, apoptotic and necrotic cells; format: cell-based, human
Description: (§3) HeLa, 9 μM] at various time points. Each experiment included a set of untreated control cells (Media with DMSO alone). Double staining with acridine orange and ethidium bromide and consequently fluorescent microscopic analysis is an established method by which to distinguish between viable, necrotic and apoptotic cells. […] Following treatment, the cells were pelleted, washed twice in 1× PBS and resuspended in 50 μL 1× PBS. 1 μL of dye mixture (1 part 100 μg/mL acridine orange in PBS and 1 part 100 μg/mL ethidium bromide in PBS) was added to 10 μL of cell suspension and the entire volume was placed on a clean microscope slide. Cells were examined by fluorescence microscopy using the fluorescein filter (BX41, Olympus, Melville, NY, USA) and were distinguished via the morphological aspect of chromatin condensation in stained nuclei as previously established. A minimum of 200 cells were counted per sample and the percentage of cells from each population (viable, live apoptotic, dead apoptotic, necrotic) was calculated.

[4] = test system: CaSki; assay: as above; format: cell-based, human
Description: as §3

[5] = test system: HeLa; assay: MTT cell viability (dose-dependent cytotoxicity) assay, 72 h; format: cell-based, human
Description: (§4) Control-treated wells contained cells incubated in media with equal volumes of DMSO (0.2%). […] The media was aspirated and cells were incubated in 100 µL complete medium with 0.5 mg/mL MTT solution for 4 h in the dark to allow metabolism of MTT by cellular mitochondrial dehydrogenases. The excess MTT was aspirated and the formazan crystals formed were dissolved by the addition of 100 µL of DMSO. The absorbance of dark blue formazan was read at 570/650 nm wavelengths using a microplate reader (Bio-Rad Benchmark Plus Microplate Spectrophotometer, Hercules, CA, USA). Triplicate absorbance values were averaged and the effect of the compounds on growth inhibition was assessed as percentage cell viability as follows: […] The results were analysed using GraphPad Prism version 6.00 for Windows (GraphPad Software, La Jolla, CA, USA). […] Overall EC50 was determined by taking the average EC50 from three independent experiments.

[6] = test system: CaSki; assay: as above; format: cell-based, human; details: for reduction in cell viability: CaSki
Description: as §4

[7] = test system: MRC9; assay: MTT cell viability (cytotoxicity) assay on non-cancerous lung fibroblasts, 72 h; format: cell-based; details: Homo sapiens, MRC9; MTT, 72 h, non-cancerous lung fibroblasts; read-out: EC50 (Mean ± S.E.M.) MRC9
Description: as §1
The results were analysed using GraphPad Prism version 6.00 for Windows (GraphPad Software, La Jolla, CA, USA). Using percentage cell viability Equation (1), log dose–response curves were constructed, from which the half maximal effective concentration, EC50 for each replicate was determined. Overall EC50 was determined by taking the average EC50 from three independent experiments. […] (3) Selectivity Index (SX) =EC50 (MRC9)/EC50 (Cancer cell line) × 100

With `O=C(C=Cc1ccccc1O)C=Cc1ccccc1O` [MS17, 1,5-bis(2-hydroxyphenyl)-1,4-pentadiene-3-one] the “dosage from which reduction in cell viability was significantly higher at 48 and 72 h than at 24 h” value [1] was 6.3 µM, the cell viability ([1]; 6.3 μM onwards, 24 h) was 34% and the cell growth ([1]; 6.3 μM onwards, 48 h) was 12%. The cell growth ([1]; 6.3 μM onwards, 72 h) was 5%, the “dosage from which reduction in cell viability was significantly higher at 48 and 72 h than at 24 h” value [2] was 3.1 µM and the cell growth ([2]; 12.5 μM onwards, 24 h) was 43%. It also gave a cell viability ([2]; 48 h) of 22%, a cell viability ([2]; 72 h) of 9% and an early apoptotic cells ([3]; 3 µM, 24 h) of 40%. For the same molecule, the early apoptotic cells ([3]; 3 µM, 48 h) was 50%, the necrotic cells ([3]; 3 µM, throughout the treatment period (24 and 48 h)) was “approximately 10%” and the early apoptotic cells ([3]; 6 µM, 24 h) was 60%. For the same molecule, the early apoptotic cells ([3]; 6 µM, 48 h) was 30%, the necrotic cells ([3]; 6 µM, throughout the treatment period (24 and 48 h)) was “approximately 25%” and the early apoptotic cells ([3]; 9 µM, 24 h) was 50%. It also gave a necrotic cells ([3]; 9 µM, 24 h) of 40%, an early apoptotic cells ([3]; 9 µM, 48 h) of 10% and a necrotic cells ([3]; 9 µM, 48 h) of 50%. For the same molecule, the viable cells ([3]; 24 h, end of dose-dependent decrease (3–9 µM)) was “less than 10%”, the viable cells ([3]; 48 h, with increasing treatment dose (3–9 µM)) was “less than 5%” and the late apoptotic cells ([3]; all treatment doses, 24 h) was no more than 10%. For the same molecule, the early apoptotic cells ([4]; 2 µM, 24 h) was 10%, the early apoptotic cells ([4]; 2 µM, 48 h) was 20% and the early apoptotic cells ([4]; 4 µM, 24 h) was 85%. For the same molecule, the early apoptotic cells ([4]; 4 μM, 48 h) was 75%, the early apoptotic cells ([4]; 6 µM, 24 h) was 55% and the necrotic cells ([4]; 6 µM, 24 h) was 30%. For the same molecule, the early apoptotic cells ([4]; 6 µM, 48 h) was 30%, the necrotic cells ([4]; 6 µM, 48 h) was 50% and the necrotic cells ([4]; 2 and 4 µM, 24 and 48 h) was ~ 10%. The viable cells ([4]; 24 h, end of dose-dependent decrease (2–6 µM)) was “less than 5%”, the viable cells ([4]; 48 h, with increasing treatment dose (2–6 µM)) was “less than 5%” and the “Selective Index HeLa” value ([5]; EC50 (MRC9)/EC50 (HeLa) × 100) was 177. For the same molecule, the cell viability ([5]; HeLa, 12.5 to 100 μM, 72 h) was “less than 10%”, the EC50 ([5]; Homo sapiens, HeLa, MTT, 72 h, read-out: EC50 (Mean ± S.E.M.) HeLa) was 2600 ± 900 nM and the viability at 3.1 µM ([5]; Homo sapiens, HeLa, 3.1 μM, 72 h) was 36%. For the same molecule, the viability at 6.3 µM ([5]; Homo sapiens, HeLa, 6.3 μM, 72 h) was 14%, the “reduction in cell viability” value ([6]; 1.6 μM, 72 h) was 30% and the “reduction in cell viability” value ([6]; 3.1 to 100 μM, 72 h) was 90%. For the same molecule, the “Selective Index CaSki” value ([6]; EC50 (MRC9)/EC50 (CaSki) × 100) was 447, the EC50 ([6]; Homo sapiens, Ca-Ski, MTT, 72 h, read-out: EC50 (Mean ± S.E.M.) CaSki) was 1030 ± 500 nM and the EC50 [7] was 4600 ± 1200 nM.
